Results from ChEMBL document CHEMBL1201862, “PubChem BioAssay data set” (2004).
Activity calls are given as the source filed them.

Columns and labels:
[1] = molecular target: Potassium voltage-gated channel subfamily KQT member 2 (Rattus norvegicus, UniProt O88943); assay: retigabine-insensitive KCNQ2 potentiators, concentration-response, dose response, cell-based, retigabine-insensitive compounds (AID 2654); assay type: functional
Coagulation factor XII = molecular target: T1, Coagulation factor XII (Homo sapiens, UniProt P00748); assay: FXIIa inhibitor potency, concentration-response, biochemical (AID 716); assay type: functional
T1 sequence (P00748 whole entry): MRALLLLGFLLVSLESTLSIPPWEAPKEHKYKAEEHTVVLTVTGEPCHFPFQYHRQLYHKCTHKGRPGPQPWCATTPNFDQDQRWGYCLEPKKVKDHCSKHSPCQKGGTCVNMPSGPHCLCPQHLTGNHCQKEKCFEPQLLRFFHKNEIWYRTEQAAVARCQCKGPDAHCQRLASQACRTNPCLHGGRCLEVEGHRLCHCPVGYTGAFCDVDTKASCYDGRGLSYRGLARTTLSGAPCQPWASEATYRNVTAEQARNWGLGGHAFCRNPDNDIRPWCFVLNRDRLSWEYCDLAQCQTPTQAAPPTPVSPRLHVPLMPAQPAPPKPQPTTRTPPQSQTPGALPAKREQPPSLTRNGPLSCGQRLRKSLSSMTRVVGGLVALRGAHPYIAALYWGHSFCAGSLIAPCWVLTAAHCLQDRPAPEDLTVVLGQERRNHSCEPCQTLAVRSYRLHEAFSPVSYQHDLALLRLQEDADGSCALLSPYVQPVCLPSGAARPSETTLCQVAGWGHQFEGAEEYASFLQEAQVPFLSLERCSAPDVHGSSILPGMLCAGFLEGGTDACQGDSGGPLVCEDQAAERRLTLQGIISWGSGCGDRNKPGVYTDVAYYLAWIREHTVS

[2] = molecular target: T2, Voltage-gated N-type calcium channel alpha-1B subunit/Amyloid beta A4 precursor protein-binding family A member 1 (Homo sapiens, UniProt Q00975+Q02410); assay: disruptors of Mint-PDZ/N-type channel peptide interaction – biochemical, HTRF, SAR follow-up (AID 2489); assay type: functional
[3] = molecular target: T2, Voltage-gated N-type calcium channel alpha-1B subunit/Amyloid beta A4 precursor protein-binding family A member 1; assay: disruptors of Mint-PDZ/N-type channel peptide interaction – biochemical, HTRF, set 2, SAR follow-up (AID 434980); assay type: functional
[4] = molecular target: T3, Zinc finger protein mex-5 (Caenorhabditis elegans, UniProt Q9XUB2); assay: MEX-5/TCR-2 RNA interaction inhibitors, dose response, biochemical, C. elegans, fluorescence polarization (AID 1960)
T3 sequence (Q9XUB2 whole entry): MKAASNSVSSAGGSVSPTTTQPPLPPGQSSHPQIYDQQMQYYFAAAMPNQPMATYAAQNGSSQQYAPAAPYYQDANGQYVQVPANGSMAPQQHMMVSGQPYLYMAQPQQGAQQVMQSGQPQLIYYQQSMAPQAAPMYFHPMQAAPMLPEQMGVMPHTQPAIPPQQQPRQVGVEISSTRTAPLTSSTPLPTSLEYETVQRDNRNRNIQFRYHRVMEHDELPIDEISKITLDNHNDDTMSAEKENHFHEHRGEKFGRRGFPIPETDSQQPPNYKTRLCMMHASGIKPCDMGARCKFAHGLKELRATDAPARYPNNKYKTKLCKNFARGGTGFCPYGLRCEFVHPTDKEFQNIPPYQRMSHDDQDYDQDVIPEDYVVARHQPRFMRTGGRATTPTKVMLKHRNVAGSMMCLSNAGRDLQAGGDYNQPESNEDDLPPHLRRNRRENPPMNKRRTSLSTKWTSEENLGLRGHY

[5] = molecular target: T4, RNA-binding protein pos-1 (Caenorhabditis elegans, UniProt G5EF15); assay: inhibitors of POS-1/mex-3 RNA binding, dose response, biochemical, fluorescence polarization (AID 1964);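 also: purified POS-1 fused to maltose binding protein made in E. coli; potency of compounds blocking POS-1 binding to fluorescent RNA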
T4 sequence (G5EF15 whole entry): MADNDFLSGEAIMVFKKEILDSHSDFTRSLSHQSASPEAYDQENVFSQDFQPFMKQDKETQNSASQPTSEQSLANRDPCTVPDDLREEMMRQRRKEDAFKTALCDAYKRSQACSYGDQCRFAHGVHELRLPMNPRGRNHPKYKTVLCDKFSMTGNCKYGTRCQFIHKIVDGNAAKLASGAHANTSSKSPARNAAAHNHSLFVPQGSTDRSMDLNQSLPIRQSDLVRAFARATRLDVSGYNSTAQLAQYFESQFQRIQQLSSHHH

Genome polyprotein = Genome polyprotein (dengue virus type 2, UniProt P29990); assay: Dengue-2 NS5 methyltransferase inhibitors, primary screen, biochemical, confirmation dose response (AID 588689); assay type: functional
[6] = molecular target: T5, Polyadenylate-binding protein 1 (Homo sapiens, UniProt P11940); assay: PABP1 MLLE–PAM2 interaction inhibitors, dose response, miRNA deadenylation inhibitor project, biochemical, fluorescence polarization, Cy5-PAM2 peptide, secondary (AID 602260); assay type: functional; details: read-out: IC50_Mean
[7] = molecular target: T5, Polyadenylate-binding protein 1; assay: PABP1 MLLE–PAM2 binding inhibitor potency, dose response, biochemical, fluorescence polarization, FITC-PAM2 peptide (AID 602259); assay type: functional; details: read-out: IC50_Mean
[8] = molecular target: Female germline-specific tumor suppressor gld-1 (Caenorhabditis elegans, UniProt Q17339); assay: inhibitors of GLD-1 binding to TGE RNA, dose response, biochemical, fluorescence polarization, C. elegans (AID 2802);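 also: fluorescence polarization of labeled TGE RNA bound by purified gld-1 protein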
Protein Rev = Protein Rev (Human immunodeficiency virus type 1 group M subtype B (isolate HXB2)(HIV-1), UniProt P04618); assay: inhibitors of Rev binding to RRE RNA, dose response, biochemical, fluorescence polarization, HIV-1 (AID 434976); design: species or system Human immunodeficiency virus 1
[9] = molecular target: T6, Rac GTPase-activating protein 1 (Homo sapiens, UniProt Q9H0H5); assay: MgcRacGAP GTPase-activating activity inhibitors, confirmation, biochemical, ADP Hunter fluorescence, primary and confirmatory (AID 624330); assay type: functional
T6 sequence (Q9H0H5 whole entry): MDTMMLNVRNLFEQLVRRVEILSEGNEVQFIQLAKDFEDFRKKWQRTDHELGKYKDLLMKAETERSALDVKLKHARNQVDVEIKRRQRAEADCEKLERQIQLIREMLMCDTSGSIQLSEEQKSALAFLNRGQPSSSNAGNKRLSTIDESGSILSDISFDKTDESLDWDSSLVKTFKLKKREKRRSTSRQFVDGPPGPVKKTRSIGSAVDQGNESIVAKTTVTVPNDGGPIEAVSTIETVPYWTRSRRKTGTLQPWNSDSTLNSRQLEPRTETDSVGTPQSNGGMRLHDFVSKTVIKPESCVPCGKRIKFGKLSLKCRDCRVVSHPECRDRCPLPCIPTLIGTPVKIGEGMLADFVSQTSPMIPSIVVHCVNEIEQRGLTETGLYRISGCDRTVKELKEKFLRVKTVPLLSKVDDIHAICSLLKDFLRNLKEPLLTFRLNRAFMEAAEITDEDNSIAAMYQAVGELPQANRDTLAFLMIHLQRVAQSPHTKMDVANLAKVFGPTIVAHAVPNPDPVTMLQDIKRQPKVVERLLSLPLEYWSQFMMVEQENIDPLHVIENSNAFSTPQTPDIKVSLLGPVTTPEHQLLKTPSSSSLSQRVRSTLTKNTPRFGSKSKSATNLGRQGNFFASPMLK

[10] = molecular target: Heat shock protein HSP 90-alpha (Homo sapiens, UniProt P07900); assay type: functional, organism-based
CHO = assay: cytotoxicity in TLR9-MyD88 CHO cells, dose response, cytotoxicity control for TLR9-MyD88 binding inhibitor project, cell-based, luminescence (AID 588339); assay type: functional, hamster; details: Cricetulus griseus;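 also: CHO cells stably coexpressing TLR9 and MyD88 fusions from primary screen; compound exposure lasted 48 hours before viability readout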
[11] = molecular target: T7, Histone-lysine N-methyltransferase NSD2 (Homo sapiens, UniProt O96028); assay type: biochemical
T7 sequence (O96028 whole entry): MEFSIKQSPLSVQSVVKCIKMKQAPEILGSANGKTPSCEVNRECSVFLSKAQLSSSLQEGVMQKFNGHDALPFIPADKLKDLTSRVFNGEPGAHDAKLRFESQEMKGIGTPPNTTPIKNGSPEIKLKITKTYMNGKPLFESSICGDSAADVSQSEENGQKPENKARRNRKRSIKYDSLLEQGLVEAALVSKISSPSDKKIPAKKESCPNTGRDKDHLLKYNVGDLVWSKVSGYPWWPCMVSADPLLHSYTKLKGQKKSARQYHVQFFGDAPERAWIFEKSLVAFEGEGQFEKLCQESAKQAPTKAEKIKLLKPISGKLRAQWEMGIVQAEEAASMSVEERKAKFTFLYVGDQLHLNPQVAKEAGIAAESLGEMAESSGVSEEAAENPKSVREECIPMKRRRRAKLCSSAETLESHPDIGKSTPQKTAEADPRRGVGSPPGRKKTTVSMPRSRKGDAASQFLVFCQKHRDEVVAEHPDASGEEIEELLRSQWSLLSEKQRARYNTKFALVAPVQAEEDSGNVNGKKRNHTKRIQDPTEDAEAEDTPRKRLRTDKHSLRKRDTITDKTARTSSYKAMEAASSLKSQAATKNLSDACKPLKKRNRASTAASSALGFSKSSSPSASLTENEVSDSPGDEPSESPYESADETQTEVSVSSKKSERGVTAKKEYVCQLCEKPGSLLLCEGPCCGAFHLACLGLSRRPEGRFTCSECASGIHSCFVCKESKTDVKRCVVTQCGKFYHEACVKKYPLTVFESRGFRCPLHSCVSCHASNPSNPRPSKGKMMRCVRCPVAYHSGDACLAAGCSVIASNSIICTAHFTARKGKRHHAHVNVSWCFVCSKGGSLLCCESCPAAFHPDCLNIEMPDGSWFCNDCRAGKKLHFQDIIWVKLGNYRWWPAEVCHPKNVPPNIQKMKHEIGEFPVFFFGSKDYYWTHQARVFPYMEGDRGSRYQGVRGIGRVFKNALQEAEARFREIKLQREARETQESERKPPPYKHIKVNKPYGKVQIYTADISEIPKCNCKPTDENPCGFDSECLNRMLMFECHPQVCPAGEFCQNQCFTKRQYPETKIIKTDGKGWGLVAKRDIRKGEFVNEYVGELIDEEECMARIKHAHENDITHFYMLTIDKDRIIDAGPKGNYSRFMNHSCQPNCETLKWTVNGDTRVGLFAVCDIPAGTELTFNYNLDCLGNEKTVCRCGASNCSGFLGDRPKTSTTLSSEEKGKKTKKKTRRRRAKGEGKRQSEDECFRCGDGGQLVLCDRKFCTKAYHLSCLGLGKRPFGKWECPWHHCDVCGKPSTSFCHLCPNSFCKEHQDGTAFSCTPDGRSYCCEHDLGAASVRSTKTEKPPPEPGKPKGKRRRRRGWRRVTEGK

Beta Lactamase = Beta Lactamase (Pseudomonas aeruginosa, UniProt Q932Y6); assay: beta-lactamase reporter inhibitor potency, dose response, artefact control for TLR9-MyD88 binding inhibitor project, BLA reporter cells, FRET fluorescence (AID 588341); assay type: cell-based;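 also: cell based assay in CHO-K1 cells stably expressing beta-lactamase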
[12] = molecular target: Glucose-6-phosphate 1-dehydrogenase (Homo sapiens, UniProt P11413); assay: human G6PD enzyme inhibitors, dose response, selectivity assay for P. falciparum G6PD inhibitor project, biochemical, fluorescence (AID 504792); assay type: functional
Beta-galactosidase = Beta-galactosidase (Escherichia coli, UniProt Q8VNN2); assay: beta-galactosidase enzyme inhibitors and activators, dose response, artefact control for CCR6 antagonist project, biochemical, E. coli enzyme, set 3 (AID 504712); assay type: functional
Hexokinase HKDC1 = molecular target: T8, Hexokinase HKDC1 (Homo sapiens, UniProt Q2TB90); assay: HKDC1 hexokinase inhibitors, dose response, biochemical, W721R variant (AID 504729); assay type: functional
T8 sequence (Q2TB90 whole entry): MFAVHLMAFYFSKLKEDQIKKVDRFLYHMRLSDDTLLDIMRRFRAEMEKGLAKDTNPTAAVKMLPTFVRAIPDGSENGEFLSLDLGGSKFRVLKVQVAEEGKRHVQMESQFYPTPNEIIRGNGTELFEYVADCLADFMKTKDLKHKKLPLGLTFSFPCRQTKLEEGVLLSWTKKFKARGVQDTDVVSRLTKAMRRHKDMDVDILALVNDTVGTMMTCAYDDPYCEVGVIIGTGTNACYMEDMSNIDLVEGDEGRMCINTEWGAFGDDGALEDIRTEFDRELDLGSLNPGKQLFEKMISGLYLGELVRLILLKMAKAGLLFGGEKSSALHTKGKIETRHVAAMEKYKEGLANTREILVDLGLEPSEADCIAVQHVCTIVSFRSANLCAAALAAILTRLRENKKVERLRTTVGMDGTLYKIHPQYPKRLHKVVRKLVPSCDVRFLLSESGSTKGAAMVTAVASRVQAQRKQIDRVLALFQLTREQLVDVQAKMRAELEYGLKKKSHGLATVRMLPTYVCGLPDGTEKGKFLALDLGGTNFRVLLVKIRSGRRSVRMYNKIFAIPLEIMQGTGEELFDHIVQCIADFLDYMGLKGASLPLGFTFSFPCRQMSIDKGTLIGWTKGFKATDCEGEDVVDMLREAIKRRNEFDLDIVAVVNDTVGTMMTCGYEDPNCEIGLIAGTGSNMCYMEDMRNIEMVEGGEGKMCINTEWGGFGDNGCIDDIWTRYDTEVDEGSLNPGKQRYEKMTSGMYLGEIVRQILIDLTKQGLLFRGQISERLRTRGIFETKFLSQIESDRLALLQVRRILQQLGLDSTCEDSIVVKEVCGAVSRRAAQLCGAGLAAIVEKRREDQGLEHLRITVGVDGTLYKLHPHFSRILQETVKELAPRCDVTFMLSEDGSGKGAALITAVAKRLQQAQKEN

T5 sequence (P11940 whole entry): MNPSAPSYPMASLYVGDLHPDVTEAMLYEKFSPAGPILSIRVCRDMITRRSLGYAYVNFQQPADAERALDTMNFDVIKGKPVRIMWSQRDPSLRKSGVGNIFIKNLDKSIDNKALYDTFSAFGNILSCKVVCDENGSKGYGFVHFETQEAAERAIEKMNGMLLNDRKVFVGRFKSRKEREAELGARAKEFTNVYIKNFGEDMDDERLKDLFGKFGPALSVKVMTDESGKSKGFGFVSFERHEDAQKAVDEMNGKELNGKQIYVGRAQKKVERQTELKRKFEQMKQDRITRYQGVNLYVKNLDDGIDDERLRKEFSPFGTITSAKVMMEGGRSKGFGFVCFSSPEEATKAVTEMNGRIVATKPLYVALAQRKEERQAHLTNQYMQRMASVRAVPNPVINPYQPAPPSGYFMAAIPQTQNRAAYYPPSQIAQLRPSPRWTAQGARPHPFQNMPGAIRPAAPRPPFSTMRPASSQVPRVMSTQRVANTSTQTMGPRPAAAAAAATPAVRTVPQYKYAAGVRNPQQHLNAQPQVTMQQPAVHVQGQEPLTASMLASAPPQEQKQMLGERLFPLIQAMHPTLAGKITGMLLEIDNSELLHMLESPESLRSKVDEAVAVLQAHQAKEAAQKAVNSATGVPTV
Sequence of Potassium voltage-gated channel subfamily KQT member 2 (O88943 whole entry): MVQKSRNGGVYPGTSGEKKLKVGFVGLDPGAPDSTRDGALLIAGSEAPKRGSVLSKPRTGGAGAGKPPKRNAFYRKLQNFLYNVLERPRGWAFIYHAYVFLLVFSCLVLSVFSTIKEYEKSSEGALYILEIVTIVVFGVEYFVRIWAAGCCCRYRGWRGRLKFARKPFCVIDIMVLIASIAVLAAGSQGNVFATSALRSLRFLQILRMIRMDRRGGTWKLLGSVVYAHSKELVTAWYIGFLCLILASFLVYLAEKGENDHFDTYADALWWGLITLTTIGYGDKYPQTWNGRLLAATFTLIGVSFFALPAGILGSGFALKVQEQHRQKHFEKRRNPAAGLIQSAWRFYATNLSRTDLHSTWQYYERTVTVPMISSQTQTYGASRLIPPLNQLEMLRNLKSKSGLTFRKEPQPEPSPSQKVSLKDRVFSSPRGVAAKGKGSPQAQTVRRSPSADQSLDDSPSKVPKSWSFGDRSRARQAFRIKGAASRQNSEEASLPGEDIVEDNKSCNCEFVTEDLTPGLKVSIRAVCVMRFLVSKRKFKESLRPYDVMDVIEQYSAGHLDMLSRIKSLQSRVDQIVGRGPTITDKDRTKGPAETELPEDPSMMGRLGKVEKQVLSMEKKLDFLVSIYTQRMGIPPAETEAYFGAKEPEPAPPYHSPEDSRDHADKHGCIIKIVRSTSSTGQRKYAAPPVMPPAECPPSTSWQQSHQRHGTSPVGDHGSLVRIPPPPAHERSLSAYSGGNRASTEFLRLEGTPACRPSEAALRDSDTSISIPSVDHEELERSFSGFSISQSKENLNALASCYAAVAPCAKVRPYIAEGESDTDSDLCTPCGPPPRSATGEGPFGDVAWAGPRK
Sequence of Genome polyprotein (P29990 2492-3391 limits assumed): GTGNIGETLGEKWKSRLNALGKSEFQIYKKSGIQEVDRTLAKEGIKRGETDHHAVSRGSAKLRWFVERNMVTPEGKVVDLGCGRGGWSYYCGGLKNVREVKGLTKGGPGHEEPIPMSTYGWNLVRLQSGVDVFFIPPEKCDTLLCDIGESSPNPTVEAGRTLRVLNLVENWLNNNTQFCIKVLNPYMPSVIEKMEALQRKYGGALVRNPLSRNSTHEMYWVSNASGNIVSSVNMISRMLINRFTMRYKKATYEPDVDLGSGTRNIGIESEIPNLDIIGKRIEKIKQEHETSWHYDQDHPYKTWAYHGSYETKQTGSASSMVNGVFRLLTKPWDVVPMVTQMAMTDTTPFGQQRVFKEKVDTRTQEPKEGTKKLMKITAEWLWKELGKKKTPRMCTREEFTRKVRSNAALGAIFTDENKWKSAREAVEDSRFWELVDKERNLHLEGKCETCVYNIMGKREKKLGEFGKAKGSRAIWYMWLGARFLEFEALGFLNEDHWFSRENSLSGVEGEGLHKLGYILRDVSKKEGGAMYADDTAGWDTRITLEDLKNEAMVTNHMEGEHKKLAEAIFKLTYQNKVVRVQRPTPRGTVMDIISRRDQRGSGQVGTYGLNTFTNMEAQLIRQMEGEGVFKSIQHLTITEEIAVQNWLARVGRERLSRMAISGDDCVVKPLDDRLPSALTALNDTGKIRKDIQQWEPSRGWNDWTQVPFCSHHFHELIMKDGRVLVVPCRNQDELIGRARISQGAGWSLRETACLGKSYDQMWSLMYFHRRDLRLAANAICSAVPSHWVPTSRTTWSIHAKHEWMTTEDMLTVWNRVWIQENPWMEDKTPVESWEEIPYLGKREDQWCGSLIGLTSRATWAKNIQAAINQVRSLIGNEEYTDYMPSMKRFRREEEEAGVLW
Sequence of Beta Lactamase (Q932Y6 whole entry): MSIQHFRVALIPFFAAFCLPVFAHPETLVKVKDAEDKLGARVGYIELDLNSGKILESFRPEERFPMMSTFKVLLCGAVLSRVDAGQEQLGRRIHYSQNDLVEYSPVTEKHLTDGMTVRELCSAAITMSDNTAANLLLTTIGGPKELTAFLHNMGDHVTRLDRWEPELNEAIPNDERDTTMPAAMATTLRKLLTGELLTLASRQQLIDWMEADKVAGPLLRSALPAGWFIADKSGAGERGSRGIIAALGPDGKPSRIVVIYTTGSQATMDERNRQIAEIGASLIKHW
Sequence of Female germline-specific tumor suppressor gld-1 (Q17339 whole entry): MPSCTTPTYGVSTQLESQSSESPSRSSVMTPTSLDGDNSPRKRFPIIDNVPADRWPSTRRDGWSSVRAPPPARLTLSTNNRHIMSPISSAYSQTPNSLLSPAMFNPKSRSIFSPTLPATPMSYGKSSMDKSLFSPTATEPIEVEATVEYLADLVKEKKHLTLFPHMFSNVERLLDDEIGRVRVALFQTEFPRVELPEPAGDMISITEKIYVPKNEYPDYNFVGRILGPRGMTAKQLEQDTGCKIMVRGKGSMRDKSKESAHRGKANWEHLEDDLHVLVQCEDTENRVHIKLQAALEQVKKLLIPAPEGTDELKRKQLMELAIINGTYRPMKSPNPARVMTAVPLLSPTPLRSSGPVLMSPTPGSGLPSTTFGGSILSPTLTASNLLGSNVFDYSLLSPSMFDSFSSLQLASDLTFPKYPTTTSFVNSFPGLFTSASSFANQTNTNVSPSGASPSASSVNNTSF
Sequence of Protein Rev (P04618 whole entry): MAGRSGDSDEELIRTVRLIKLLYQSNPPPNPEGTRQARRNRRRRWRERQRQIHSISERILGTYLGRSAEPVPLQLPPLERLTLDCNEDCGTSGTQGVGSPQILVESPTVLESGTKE
Sequence of Beta-galactosidase (Q8VNN2 whole entry): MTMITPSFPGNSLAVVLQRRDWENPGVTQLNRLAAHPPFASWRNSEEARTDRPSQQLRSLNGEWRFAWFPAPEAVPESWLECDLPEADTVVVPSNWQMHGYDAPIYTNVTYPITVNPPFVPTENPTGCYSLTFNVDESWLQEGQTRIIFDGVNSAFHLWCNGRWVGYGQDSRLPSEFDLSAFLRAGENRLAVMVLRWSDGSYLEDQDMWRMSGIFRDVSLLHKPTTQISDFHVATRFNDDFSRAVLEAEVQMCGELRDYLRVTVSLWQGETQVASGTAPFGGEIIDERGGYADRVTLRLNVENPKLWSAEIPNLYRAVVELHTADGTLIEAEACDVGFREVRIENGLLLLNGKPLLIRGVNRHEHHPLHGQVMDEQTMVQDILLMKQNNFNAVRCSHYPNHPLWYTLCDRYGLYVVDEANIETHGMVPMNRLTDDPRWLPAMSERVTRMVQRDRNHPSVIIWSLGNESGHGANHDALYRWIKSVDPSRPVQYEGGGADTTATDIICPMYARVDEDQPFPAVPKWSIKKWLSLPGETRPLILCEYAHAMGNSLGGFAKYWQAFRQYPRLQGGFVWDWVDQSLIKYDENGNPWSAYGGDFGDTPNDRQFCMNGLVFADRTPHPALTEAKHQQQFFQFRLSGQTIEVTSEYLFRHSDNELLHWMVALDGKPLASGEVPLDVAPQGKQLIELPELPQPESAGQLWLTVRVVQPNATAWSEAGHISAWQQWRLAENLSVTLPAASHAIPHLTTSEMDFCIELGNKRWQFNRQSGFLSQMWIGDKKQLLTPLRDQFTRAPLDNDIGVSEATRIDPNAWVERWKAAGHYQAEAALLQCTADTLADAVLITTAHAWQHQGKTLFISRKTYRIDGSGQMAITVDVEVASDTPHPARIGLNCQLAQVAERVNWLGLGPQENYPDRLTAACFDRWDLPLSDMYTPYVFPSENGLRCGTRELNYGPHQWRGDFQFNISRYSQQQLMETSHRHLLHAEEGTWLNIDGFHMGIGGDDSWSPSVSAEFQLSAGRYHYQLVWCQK
Sequence of Glucose-6-phosphate 1-dehydrogenase (P11413 whole entry): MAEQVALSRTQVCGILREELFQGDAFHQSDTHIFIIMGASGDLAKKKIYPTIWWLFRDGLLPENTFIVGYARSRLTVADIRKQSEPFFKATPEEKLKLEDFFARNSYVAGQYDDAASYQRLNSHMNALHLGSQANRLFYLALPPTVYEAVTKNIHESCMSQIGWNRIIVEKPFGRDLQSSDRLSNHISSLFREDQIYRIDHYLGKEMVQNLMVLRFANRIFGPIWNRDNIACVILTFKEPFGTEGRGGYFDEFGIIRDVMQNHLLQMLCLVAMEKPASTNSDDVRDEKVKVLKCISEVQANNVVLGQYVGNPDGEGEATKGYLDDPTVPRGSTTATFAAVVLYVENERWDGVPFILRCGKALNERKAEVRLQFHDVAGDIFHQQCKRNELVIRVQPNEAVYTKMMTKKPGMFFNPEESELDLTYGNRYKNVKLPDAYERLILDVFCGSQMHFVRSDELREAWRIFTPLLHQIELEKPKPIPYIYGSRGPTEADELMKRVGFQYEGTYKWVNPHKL

Structure (SMILES): O=C(NCc1ccc(Cl)cc1Cl)Nc1ccc(Cl)nc1
- EC50 [1]: 3.74 µM (active)

Structure (SMILES): COc1ccc(CNc2nc(NCc3ccc(OC)cc3)n(S(C)(=O)=O)n2)cc1
- IC50 (Coagulation factor XII): > 50 µM (inactive)

Structure (SMILES): COC(=O)c1cc(N2C(=O)C3C(C2=O)C2(C)C=CC3(C)O2)ccc1Cl (stereo not drawn)
- IC50 [2]: > 56.8 µM (inactive)
- IC50 [3]: > 56.8 µM (inactive)

Structure (SMILES): O=C1c2ccccc2C(=O)c2c1cccc2N(CCO)CCO
- EC50 [4]: 17 µM (active)
- EC50 [5]: 19.6 µM (active)
- IC50 (Genome polyprotein): 28.8 µM (active)
- IC50 [6]: > 66 µM (inactive)
- IC50 [7]: 47.7 µM (inactive)
- IC50 [8]: 5.51 µM (active)
- IC50 (Protein Rev): 8.44 µM (active)

Structure (SMILES): O=C(Nc1cccnc1)Nc1cccc(Cl)c1
- EC50 [1]: 18.3 µM (active)

Structure (SMILES): O=C1C(Cl)=C(NCCc2ccccc2)C(=O)c2ccccc21
- IC50 [9]: 218 µM (active)
- AC50 [10]: 3.38 µM (active)
- IC50 (CHO): 1.58 µM (active)
- AC50 [11]: 3.78 µM (active)
- IC50 (Beta Lactamase): 17.7 µM (inactive)
- IC50 (Genome polyprotein): 9.15 µM (active)
- IC50 [12]: 19.7 µM (active)
- IC50 [6]: > 66 µM (inactive)
- IC50 [7]: > 66 µM (inactive)
- IC50 (Beta-galactosidase): > 66.6 µM (inactive)
- IC50 (Hexokinase HKDC1): 7.92 µM (active)
